The text below walks through data of US12351855B2, “Bioelectronic circuits, systems and methods for preparing and using them” (priority 2019, dated 2025).

Non-standard residues stand in square brackets, D forms with d.

One series concerns the target αVβ3 Integrin (Homo sapiens, UniProt P05106+P06756). Conditions: Table 1 adapted from Zhang et al.; not among the SPR-measured affinities; cited from earlier work.
The target of another series is IgG Anti-Ebola. The class given is binding.
In another series the target is IgE Anti-DNP. The class given is binding, mouse.
A further series deals with IgG Anti-HIV. The class given is binding.
Another series concerns DNA template. In words: Rolling-circle amplification of a DNA template, DNA gel of polymerization product. The class given is biochemical. As to conditions: polymerase bound by two streptavidin molecules; versus native enzyme with exonuclease activity deleted. The method, then:
To confirm that the modified polymerase was still active, rolling-circle amplification of a DNA template was carried out with the molecule 35 as bound by two streptavidin molecules.

One may read the Kd as the free concentration of one partner at which half of the binding sites on the other are occupied at equilibrium, for simple one-to-one binding.

αVβ3 Integrin, sequence (P06756 31-889 limits assumed): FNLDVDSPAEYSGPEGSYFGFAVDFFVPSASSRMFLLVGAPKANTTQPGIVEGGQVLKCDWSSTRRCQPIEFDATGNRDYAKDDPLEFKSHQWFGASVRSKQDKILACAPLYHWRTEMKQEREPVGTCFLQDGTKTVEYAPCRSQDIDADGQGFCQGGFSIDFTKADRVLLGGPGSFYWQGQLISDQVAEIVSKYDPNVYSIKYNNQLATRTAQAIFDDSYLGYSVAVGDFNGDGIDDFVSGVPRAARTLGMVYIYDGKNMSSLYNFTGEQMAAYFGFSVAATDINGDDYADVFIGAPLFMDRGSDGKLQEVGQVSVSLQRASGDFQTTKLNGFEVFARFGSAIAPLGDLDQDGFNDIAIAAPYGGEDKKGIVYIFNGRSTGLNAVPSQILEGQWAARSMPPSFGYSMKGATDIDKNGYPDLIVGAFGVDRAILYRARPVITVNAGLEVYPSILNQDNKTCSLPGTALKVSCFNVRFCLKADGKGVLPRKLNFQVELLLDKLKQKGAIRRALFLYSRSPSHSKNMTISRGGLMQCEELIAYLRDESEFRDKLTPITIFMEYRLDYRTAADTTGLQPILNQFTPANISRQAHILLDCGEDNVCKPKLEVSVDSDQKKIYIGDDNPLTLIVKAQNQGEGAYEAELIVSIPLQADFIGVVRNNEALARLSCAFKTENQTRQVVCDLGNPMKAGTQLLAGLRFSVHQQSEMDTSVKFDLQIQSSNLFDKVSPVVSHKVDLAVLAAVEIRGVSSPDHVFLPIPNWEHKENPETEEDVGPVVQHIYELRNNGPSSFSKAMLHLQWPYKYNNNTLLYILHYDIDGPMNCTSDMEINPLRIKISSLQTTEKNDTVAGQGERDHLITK
αVβ3 Integrin, sequence (P06756 891-1048 partner limits assumed): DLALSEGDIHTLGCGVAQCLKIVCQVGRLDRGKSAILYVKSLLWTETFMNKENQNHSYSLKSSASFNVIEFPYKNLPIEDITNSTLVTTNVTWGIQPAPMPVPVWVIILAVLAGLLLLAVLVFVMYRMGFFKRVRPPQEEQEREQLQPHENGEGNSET
αVβ3 Integrin, sequence (P05106 27-788): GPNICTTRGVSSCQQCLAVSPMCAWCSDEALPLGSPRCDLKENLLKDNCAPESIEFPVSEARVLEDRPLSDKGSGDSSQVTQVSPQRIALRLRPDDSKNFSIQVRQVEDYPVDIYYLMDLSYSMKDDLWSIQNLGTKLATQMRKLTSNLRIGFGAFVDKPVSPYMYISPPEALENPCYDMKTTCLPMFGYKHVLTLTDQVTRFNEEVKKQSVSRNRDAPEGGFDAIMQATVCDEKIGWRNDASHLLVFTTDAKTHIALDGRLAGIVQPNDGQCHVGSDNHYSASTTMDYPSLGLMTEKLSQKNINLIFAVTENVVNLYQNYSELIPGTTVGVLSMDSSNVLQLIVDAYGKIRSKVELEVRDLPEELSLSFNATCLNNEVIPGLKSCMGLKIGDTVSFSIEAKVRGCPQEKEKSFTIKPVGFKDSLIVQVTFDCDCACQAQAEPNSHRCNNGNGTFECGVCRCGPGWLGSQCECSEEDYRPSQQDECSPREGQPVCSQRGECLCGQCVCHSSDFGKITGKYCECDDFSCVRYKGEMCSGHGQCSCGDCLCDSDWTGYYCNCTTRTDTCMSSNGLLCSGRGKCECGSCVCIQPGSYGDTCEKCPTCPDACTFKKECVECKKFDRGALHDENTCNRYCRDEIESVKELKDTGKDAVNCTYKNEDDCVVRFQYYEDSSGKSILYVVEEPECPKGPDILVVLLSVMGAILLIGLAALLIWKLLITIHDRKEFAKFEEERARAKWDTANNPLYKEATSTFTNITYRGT

Consider cyclo(RGD[dF]C) [Cyclic RGDfC], for which, at αVβ3 Integrin, the Kd is roughly 0.01 µM.
Turning to CHNTPVYKLDISEATQV, the Kd at IgG Anti-Ebola was 1.4 µM.
As to HSCH2CH2-dinitrophenol, the equilibrium dissociation constant (Kd) at IgE Anti-DNP was determined as 0.065 µM.
On IgG Anti-HIV, CALDRWEKIRLR registered a dissociation constant Kd of 0.24 µM.

B1: bis-biotinylated polymerase: exonuclease-deleted ϕ29 polymerase with biotinylated Avitags inserted between G111/K112 and E279/D280 (protein)
chain: MKHMPRKMYSCAFATTTKVEDCRVWAYGYMNIEDHSEYKIGNSLDEFMAWVLKVQADLYFHNLKFDGAFIINWLERNGFKWSADGLPNTYNTIISRMGQWYMIDICLGYKGGLNDIFEAQKIEWHEKRKIHTVIYDSLKKLPFPVKKIAKDFKLTVLKGDIDYHKERPVGYKITPEEYAYIKNDIQIIAEALLIQFKQGLDRMTAGSDSLKGFKDIITTKKFKKVFPTLSLGLDKEVRYAYRGGFTWLNDRFKEKEIGEGMVFDVNSLYPAQMYSRLLPYGEPIVFEGKYVWDEGLNDIFEAQKIEWHEDYPLHIQHIRCEFELKEGYIPTIQIKRSRFYKGNEYLKSSGGEIADLWLSNVDLELMKEHYDLYNVEYISGLKFKATTGLFKDFIDKWTYIKTTSEGAIKQLAKLMLNSLYGKFASNPDVTGKVPYLKENGALGFRLGEEETKDPVYTPMGVFITAWARYTTITAAQACYDRIIYCDTDSIHLTGTEIPDVIKDIVDPKKLGYWAHESTFKRAKYLRQKTYIQDIYMKEVDGKLVEGSPDDYTDIKFSVKCAGMTDKIKKEVTFENFKVGFSRKMKPKPVQVPGGVVLVDDTFTIK
In the case of B1, the polymerase activity entry in the series with DNA template is recorded as “comparable to that of the native enzyme”.
